Here are results for one substance from patent publication US8992932B2, “Binder-drug conjugates (ADCs) and use thereof” (Seattle Genetics, Inc., priority 2011, dated 2015).

In one series the test system is Caco-2 cells. In words: Cell permeability flux assay using Caco-2 cells. The class given is in vitro ADME. Particulars: basal to apical, 2 hours. How it is done:
The cell permeability of a substance can be investigated by means of in vitro testing in a flux assay using Caco-2 cells [M. D. Troutman and D R Thakker, Pharm. Res. 20 (8), 1210-1224 (2003)]. For this purpose, the cells were cultured for 15-16 days on 24-well filter plates. For the determination of permeation, the respective working example was applied in a HEPES buffer to the cells either apically (A) or basally (B) and incubated for 2 hours. After 0 hours and after 2 hours, samples were taken from the cis and trans compartments. The samples were separated by HPLC (Agilent 1200, Boblingen, Germany) using reverse phase columns. The HPLC system was coupled via a Turbo Ion Spray Interface to a Triple Quadropol mass spectrometer API 4000 (Applied Biosystems Applera, Darmstadt, Germany). The permeability was evaluated on the basis of a Papp value, which was calculated using the formula published by Schwab et al. [D. Schwab et al., J. Med. Chem. 46, 1716-1725 (2003)].
A general note: Passage across Caco-2 layers is used to estimate intestinal permeability.

The subject of a further series is tubulin. In words: Fluorescence-based microtubule polymerisation assay (DAPI). The class given is biochemical. How it is done:
Tubulin polymerization was investigated using the “Fluorescence-based Microtubule Polymerisation Assay Kit” from Cytoskeleton (Denver, Colo., USA; order number: BK011). With this assay, GTP is added to unpolymerized tubulin, allowing polymerization to take place spontaneously. The assay is based on the binding of the fluorophore 4′,6-diamidino-2-phenylindole (DAPI) to tubulin. Free and bound DAPI can be differentiated on the basis of different emission spectra.
[…] In addition to the buffer control, paclitaxel, with a polymerization-increasing effect, and vinblastin, with a polymerization inhibiting effect, were run additionally as assay controls. Measurement was carried out using 96-well plates with a half base area. The kinetics of the tubulin polymerization were monitored in a Fluorimeter at 37° C. for 1 hour. The excitation wavelength was 355 nm, and emission was monitored at 460 nm. For the region of linear increase within the first 10 minutes, a calculation was made of the change in fluorescence per minute (AF/min), which represents the polymerization rate of the microtubuli. The potency of the test substances was quantified on the basis of their respective reduction of the polymerization rate.

The next series has as its target T1, P-glycoprotein (P-gp) (Homo sapiens, UniProt P08183).
T1 construct: expressed in transfected cells; host or cells: LLC-PK1 (pig kidney) cells transfected with human MDR1 (L-MDR1 cells)
As to the kind of experiment: P-gp substrate flux assay in L-MDR1 cells. The class given is in vitro ADME. Particulars: L-MDR1 cells (P-gp overexpressing LLC-PK1); basal to apical; 2 hours. How it is done:
The substrate properties of a substance for P-gp (ABCB1) were determined by means of a flux assay using LLC-PK1 cells which overexpress P-gp (L-MDR1 cells) [A. H. Schinkel et al., J. Clin. Invest. 96, 1698-1705 (1995)]. For this purpose, the LLC-PK1 cells or L-MDR1 cells were cultured on 96-well filter plates for 3-4 days. For determination of the permeation, the respective test substance, alone or in the presence of an inhibitor (such as Ivermectin or Verapamil, for example), was applied in a HEPES buffer to the cells either apically (A) or basally (B) and incubated for 2 hours. After 0 hours and after 2 hours, samples were taken from the cis and trans compartments. The samples were separated by HPLC using reverse phase columns. The HPLC system was coupled via a Turbo Ion Spray Interface to a Triple Quadropol mass spectrometer API 3000 (Applied Biosystems Applera, Darmstadt, Germany). The permeability was evaluated on the basis of a Papp value which was calculated using the formula published by Schwab et al. [D. Schwab et al., J. Med. Chem. 46, 1716-1725 (2003)].

T1 sequence (P08183 whole entry): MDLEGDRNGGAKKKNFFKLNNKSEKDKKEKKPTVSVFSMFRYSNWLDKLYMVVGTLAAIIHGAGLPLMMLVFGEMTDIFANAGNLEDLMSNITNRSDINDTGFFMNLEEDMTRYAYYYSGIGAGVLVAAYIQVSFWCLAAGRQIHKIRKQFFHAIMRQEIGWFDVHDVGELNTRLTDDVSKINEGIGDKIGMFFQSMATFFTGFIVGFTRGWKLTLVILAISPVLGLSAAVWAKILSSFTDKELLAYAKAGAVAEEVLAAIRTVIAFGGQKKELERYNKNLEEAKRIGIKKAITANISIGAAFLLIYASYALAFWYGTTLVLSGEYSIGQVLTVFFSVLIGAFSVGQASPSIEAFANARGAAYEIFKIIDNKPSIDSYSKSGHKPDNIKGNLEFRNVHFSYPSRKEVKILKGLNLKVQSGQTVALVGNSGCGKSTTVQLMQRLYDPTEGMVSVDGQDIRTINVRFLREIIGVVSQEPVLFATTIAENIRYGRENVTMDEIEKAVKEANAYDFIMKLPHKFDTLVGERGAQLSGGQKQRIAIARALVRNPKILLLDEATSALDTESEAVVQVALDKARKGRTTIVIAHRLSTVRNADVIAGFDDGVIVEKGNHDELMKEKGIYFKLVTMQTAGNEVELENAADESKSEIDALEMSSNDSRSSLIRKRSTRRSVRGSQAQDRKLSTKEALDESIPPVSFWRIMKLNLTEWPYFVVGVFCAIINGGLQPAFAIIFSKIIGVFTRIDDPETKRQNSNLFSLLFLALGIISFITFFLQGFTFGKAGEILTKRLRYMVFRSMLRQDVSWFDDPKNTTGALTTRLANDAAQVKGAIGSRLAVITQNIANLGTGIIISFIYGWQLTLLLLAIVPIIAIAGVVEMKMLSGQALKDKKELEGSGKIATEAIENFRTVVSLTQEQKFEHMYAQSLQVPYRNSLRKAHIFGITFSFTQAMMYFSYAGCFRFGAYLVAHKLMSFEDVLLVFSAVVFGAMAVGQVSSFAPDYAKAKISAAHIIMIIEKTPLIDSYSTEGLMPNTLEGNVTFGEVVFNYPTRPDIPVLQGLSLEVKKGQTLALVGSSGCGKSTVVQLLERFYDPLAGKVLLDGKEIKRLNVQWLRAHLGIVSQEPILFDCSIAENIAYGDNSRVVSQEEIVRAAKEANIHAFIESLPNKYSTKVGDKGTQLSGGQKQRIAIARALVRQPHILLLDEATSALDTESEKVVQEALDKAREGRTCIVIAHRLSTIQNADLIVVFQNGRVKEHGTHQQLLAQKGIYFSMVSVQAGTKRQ

With “N-[6-(3-{[(2R)-2-Amino-2-carboxyethyl]sulphanyl}-2,5-dioxopyrrolidin-1-yl)hexyl]-N-methyl-L-valyl-N-[(3R,4S,5S)-1-{(2S)-2-[(1R,2R)-3-{R1S)-1-carboxy-2-(1H-indol-3-yl)ethyl]amino}-1-methoxy-2-methyl-3-oxopropyl]pyrrolidin-1-yl}-3-methoxy-5-methyl-1-oxoheptan-4-yl]-N-methyl-L-valinamide [Example 75]”, the “Papp (B-A)” value was 0.1 ×10⁻⁶ cm/s with Caco-2 cells and 0.4 ×10⁻⁶ cm/s on P-glycoprotein (P-gp). The “Tubulin polymerization in the presence of toxophore in [%]. Tubulin polymerization rate at 1 μM MMAF set at 100%” value with tubulin (toxophore 1 μM) came to 107%; in the series with tubulin (toxophore 10 μM) it was 25%.
